In PubChem BioAssay (NCI):
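Test compounds were applied to cells in 96-well plates for 48 hours at 5 doses. At the TGI there is no net growth.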

Legend:
Test in all cases: inhibition of tumour cell growth, NCI panel, 48 h
ACHN renal = tested on: ACHN renal
KM12 colon = tested on: KM12 colon
MDA-MB-435 = tested on: MDA-MB-435
MOLT-4 leukemia = tested on: MOLT-4 leukemia
OVCAR-5 ovarian = tested on: OVCAR-5 ovarian
RXF 393 renal = tested on: RXF 393 renal
SF-539 CNS = tested on: SF-539 CNS
SNB-19 CNS = tested on: SNB-19 CNS
U251 CNS = tested on: U251 CNS
UO-31 renal = tested on: UO-31 renal

Row | Compound | TGI (ACHN renal) | TGI (KM12 colon) | TGI (MDA-MB-435) | TGI (MOLT-4 leukemia) | TGI (OVCAR-5 ovarian) | TGI (RXF 393 renal) | TGI (SF-539 CNS) | TGI (SNB-19 CNS) | TGI (U251 CNS) | TGI (UO-31 renal)
1 | CCOC(=O)C(Cl)(NC(=O)c1c(F)c(F)c(F)c(F)c1F)C(F)(F)F (stereo not given) | > 100 µM | > 100 µM | > 100 µM | > 100 µM | > 100 µM | > 100 µM | > 100 µM | > 100 µM | > 100 µM | > 100 µM
2 | NCCCNC1(c2cc3ccccc3s2)CCCCC1 | 24.4 µM | 14.7 µM | 4.48 µM | 15.7 µM | 26.3 µM | 17.3 µM | 4.23 µM | 22.5 µM | 10 µM | 8.44 µM
3 | Cc1cc(C)c2c(n1)S(=O)(=O)N(CCCN1CCN(c3cccc(C(F)(F)F)c3)CC1)c1c-2nn(C)c1C | > 100 µM | > 100 µM | > 100 µM | > 100 µM | > 100 µM | > 100 µM | > 100 µM | > 100 µM | > 100 µM | > 100 µM
4 | CC1OC2(CC(OCc3ccccc3)C1OCc1ccccc1)OCCO2 (stereo not given) | > 100 µM | > 100 µM | > 100 µM | 75.2 µM | > 100 µM | 74.4 µM | > 100 µM | > 100 µM | > 100 µM | > 100 µM
5 | O=c1[nH]c(Nc2cc(Cl)cc(Cl)c2)nc2nc[nH]c12 | > 75 µM | > 75 µM | > 75 µM | > 75 µM | > 75 µM | > 75 µM | > 75 µM | > 75 µM | > 75 µM | > 75 µM
6 | Cc1cc(C)nc(SC(C)C(=O)N/N=C/c2ccc(OCc3ccccc3)cc2)n1 (stereo not given) | > 100 µM | > 100 µM | > 100 µM | 86.1 µM | > 100 µM | 66.6 µM | > 100 µM | > 100 µM | > 100 µM | > 100 µM
7 | CN(C)c1ccccc1CN1CCCN(Cc2ccccc2N(C)C)C1c1ccncc1 | 99.2 µM | 41.7 µM | 20.2 µM | 43.6 µM | 40.9 µM | 22.4 µM | 36 µM | 33 µM | > 100 µM | 13.9 µM
8 | COc1ccc(/C=C2\N=C(c3ccccc3)N(N=C3NC(=O)CC(=O)N3)C2=O)cc1 | > 100 µM | > 100 µM | > 100 µM | > 100 µM | > 100 µM | > 100 µM | > 100 µM | > 100 µM | > 100 µM | > 100 µM
9 | CC(C)[Si](OC1=CCC[C@H]2NC(=O)[C@@H](Cc3ccccc3)[C@@]12C)(C(C)C)C(C)C | 5.25 µM | 14.4 µM | 13.4 µM | 14.7 µM | 21.3 µM | 15 µM | 19.1 µM | 22.5 µM | 11.6 µM | 22.3 µM
10 | COc1ccc(OC)c(CC2CCc3nc(N)nc(N)c3C2)c1 (stereo not given) | > 65.8 µM | > 100 µM | 54 µM | > 100 µM | > 100 µM | 4.37 µM | 22.6 µM | > 81.8 µM | > 100 µM | > 75.4 µM
11 | CSCCCNC(=O)c1csc(-c2csc(C(CNC(=O)OC(C)(C)C)CNC(=O)OC(C)(C)C)n2)n1 | > 100 µM | > 100 µM | > 100 µM | 43.9 µM | > 100 µM | > 100 µM | > 100 µM | > 100 µM | 71.5 µM | > 100 µM
12 | COc1ccc(C(SCCO)(c2ccccc2)c2ccccc2)cc1 | 27.3 µM | 37 µM | 27.1 µM | > 100 µM | 36.4 µM | 41 µM | 30.2 µM | 29.1 µM | 25.9 µM | 28.1 µM
13 | C/C(=C/C(=O)Nn1c(Cc2ccccc2)n[nH]c1=O)C(=O)O | > 100 µM | > 100 µM | > 100 µM | > 100 µM | > 100 µM | > 100 µM | > 100 µM | > 100 µM | > 100 µM | > 100 µM
14 | O=S(=O)(O)ON=C1c2ccccc2-c2ccccc21 | > 100 µM | > 100 µM | > 100 µM | > 100 µM | > 100 µM | > 100 µM | > 100 µM | > 100 µM | > 100 µM | > 100 µM
15 | CCCCCCOP(=O)(OCCCCCC)C(NC(=O)OCC)(C(F)(F)F)C(F)(F)F | > 100 µM | > 100 µM | > 100 µM | > 100 µM | > 100 µM | 76.9 µM | > 100 µM | > 100 µM | > 100 µM | 72.2 µM
16 | CCOC(=O)c1c(N2CCCC2)[nH]c(=O)c(C(c2ccco2)c2c(O)c(C(=O)OCC)c(N3CCCC3)[nH]c2=O)c1O | > 100 µM | > 100 µM | > 100 µM | > 100 µM | > 100 µM | > 100 µM | > 100 µM | > 100 µM | > 100 µM | > 100 µM
17 | N#C/C(=C\NC(=S)c1ccncc1)c1nc2ccccc2s1 | > 100 µM | > 100 µM | > 100 µM | > 100 µM | > 100 µM | > 100 µM | > 100 µM | > 100 µM | > 100 µM | > 100 µM

Row | Compound | TGI (ACHN renal) | TGI (KM12 colon) | TGI (MDA-MB-435) | TGI (MOLT-4 leukemia) | TGI (OVCAR-5 ovarian) | TGI (RXF 393 renal) | TGI (SF-539 CNS) | TGI (SNB-19 CNS) | TGI (U251 CNS) | TGI (UO-31 renal)
18 | c1ccc2c(c1)ncn2C1CCCCO1 (stereo not given) | > 100 µM | > 100 µM | > 100 µM | > 100 µM | > 100 µM | > 100 µM | > 100 µM | > 100 µM | > 100 µM | > 100 µM
19 | CC(=O)N(O)[C@@H]1CC[C@H](n2cnc3c(N)ncnc32)C1 | > 100 µM | > 100 µM | > 100 µM | > 100 µM | > 100 µM | > 100 µM | > 100 µM | > 100 µM | > 100 µM | > 100 µM
20 | Cc1cc(Cc2c(F)c(F)c(C(c3cc(C)no3)c3c(F)c(F)c(F)c(F)c3F)c(F)c2F)on1 (stereo not given) | > 100 µM | > 100 µM | > 41.9 µM | > 100 µM | > 100 µM | 8.08 µM | > 100 µM | > 100 µM | > 100 µM | > 100 µM
21 | Nc1nc(Cl)cc(NCCC2(CO)CCC2)n1 | > 100 µM | > 100 µM | > 100 µM | > 100 µM | > 100 µM | > 100 µM | > 100 µM | > 100 µM | > 100 µM | > 100 µM
22 | Cc1noc2nnn(-c3ccc(Cl)cc3)c(=O)c12 | 15.1 µM | 31.1 µM | 16.2 µM | 1.94 µM | 20 µM | 4.79 µM | 1.73 µM | 26.1 µM | 17.7 µM | 8.63 µM
23 | CCOC(=O)c1ccc(C(=O)/C(C(C)=O)=C2\CCCN2C)n1C | > 100 µM | > 100 µM | > 100 µM | > 100 µM | > 100 µM | > 100 µM | 22.8 µM | > 100 µM | > 100 µM | > 100 µM
24 | Cn1c2ccccc2c2c(=O)[nH]c(=O)[nH]c21 | > 100 µM | > 100 µM | > 100 µM | > 100 µM | > 100 µM | > 100 µM | > 100 µM | > 100 µM | > 100 µM | > 100 µM
25 | Fc1ccc2nc3n(c2c1)C(c1c(Cl)cccc1Cl)SC3 (stereo not given) | > 100 µM | > 100 µM | > 100 µM | > 100 µM | > 100 µM | > 100 µM | > 100 µM | > 100 µM | > 100 µM | > 100 µM
26 | COc1ccc(/C=C2\CCC(CNc3ccc(OC)cc3)C2=O)cc1 (stereo not given) | 58.6 µM | 23.8 µM | 40.6 µM | > 40.8 µM | 38.1 µM | 29.9 µM | 36.4 µM | > 59.2 µM | 38.5 µM | 36.1 µM
27 | O=C(/C=C/c1cc(O)c(O)cc1O)OCCc1ccccc1 | 26.8 µM | > 100 µM | 48.9 µM | 11.7 µM | > 59.2 µM | > 31.1 µM | 44.5 µM | > 100 µM | > 57.9 µM | 19.7 µM
28 | O=C/C=C/c1ccco1 | > 100 µM | > 100 µM | > 100 µM | > 100 µM | > 100 µM | > 100 µM | > 100 µM | > 100 µM | > 100 µM | > 100 µM
29 | CCSc1cc(=O)n(C)c(=O)n1C | > 100 µM | > 100 µM | > 100 µM | > 100 µM | > 100 µM | > 100 µM | > 100 µM | > 100 µM | > 100 µM | > 100 µM
30 | O=C(/C=C/c1ccc(/C=C/C(=O)c2ccc(O)cc2)cc1)c1ccc(O)cc1 | > 100 µM | > 100 µM | > 100 µM | > 100 µM | > 100 µM | > 100 µM | > 100 µM | > 100 µM | > 100 µM | > 100 µM
31 | C#CC1(O)C(COP(=O)(O)OCC2OC(n3ccc(NCCCCCCCCCCCCCCCCCC)nc3=O)C(O)C2O)OC(n2ccc(N)nc2=O)C1O (stereo not given) | > 53.3 µM | 26.6 µM | 7.57 µM | 40 µM | 60.5 µM | 61.9 µM | 34.5 µM | 40.6 µM | 53.5 µM | 2.53 µM
32 | NC1CC2NC3CCCCC3NC2CC1N (stereo not given) | > 100 µM | > 100 µM | > 100 µM | 92.9 µM | > 100 µM | 94.5 µM | > 100 µM | > 100 µM | > 100 µM | > 100 µM
33 | CCCCCCCCCCCCCC[S+](C)C | > 10 µM | 2.95 µM | 4.35 µM | 2.85 µM | > 10 µM | 2.72 µM | 2.79 µM | 2.84 µM | 2.28 µM | > 10 µM
34 | COC1(OC)CC(CO)(CNc2cc(Cl)nc(N)n2)C1 | > 100 µM | > 100 µM | > 100 µM | > 100 µM | > 100 µM | > 100 µM | > 100 µM | > 100 µM | > 100 µM | > 100 µM
